These results are taken from patent US20260327263A1, “Anti-Bacterial Peptides” (priority 2023, published 2026).

Where “and” joins values, the source holds several entries; their conditions need not be identical. Equal values may be shown once. Entries after “also recorded” stand apart in the source; their conditions may differ. Where no end group is shown, it is not given here.

What all share (type): cell-based
Data set [1] deals with Staphylococcus aureus (SA). Kind of data set: Broth microdilution anti-bacterial assay (CLSI), Staphylococcus aureus. Conditions: SA; for MIC: overnight, 37° C., ≥99% inhibition; for MBC: ≥99% killing. A general note: Dilution methods test growth across graded concentrations, often in twofold steps.
The test system of data set [2] is Staphylococcus aureus (SA). Kind of data set: Time-kill assay, Staphylococcus aureus. Particulars: for time to kill SA (in words): 1X MBC; for Time kill SA, >99% killing: at 1X MBC, * indicates killing within seconds. As for the experimental part:
The bactericidal abilities of the variant peptides are not only effective, but also fast-acting. […] The killing kinetics are detailed in Table 11 below.
Pseudomonas aeruginosa (PA) and Staphylococcus aureus (SA) strains were grown as per CLSI guidelines. AMPs were added to the bacterial cultures at their 1X MBC concentrations. Upon treatment, the bacterial cultures were enumerated for viable counts immediately within 1 min, 5 min, 15 min, 30 min and 60 min post-treatments.

The test system of data set [3] is Pseudomonas aeruginosa (PA). Nature of the data set: Antimicrobial resistance evolution assay, PA. Conditions: for development of antimicrobial resistance, PA: serial passaging, 28 days, resistance = >4-fold MIC change. The text has this:
The development of antimicrobial resistance is defined by greater than a 4-fold change to their initial minimum inhibitory concentration (MIC) at day 1. Exemplary bacteria strains Pseudomonas aeruginosa (PA) and Staphylococcus aureus (SA) are subjected to continuous daily serial passaging over several days, with treatment of exemplary variant peptides E1AM2 (SEQ ID NO: 2) and Q19L (SEQ ID NO: […]) at subinhibitory concentrations. […] The treatments were discontinued when the MIC increased by more than four-fold from the initial MIC or when MIC reached >100 μM.
Briefly, sequential passaging of PA, and SA cells was done with sub-inhibitory concentrations of antibiotics or E1AM2 up to 4 weeks. The cells grown in those concentrations of antibiotics or peptides were diluted to A600 nm (OD600) of ~0.2 and serially passaged daily with the same concentrations at 37° C. with agitation at 24 h intervals.

The subject of a further data set is human keratinocytes. Nature of the data set: 2D scratch assay, keratinocyte migration. As for the experimental part: Wound healing is directly associated with the migration speed of keratinocytes. The migration speed of human keratinocytes in presence of E1AM2, V8L (SEQ ID NO: 19), and Q19L variants is tested in comparison with pexiganan (SEQ ID NO: 54). Migration speed of human keratinocytes assessed in a 2D scratch assay at D 0 and D 2 timepoints. Decrease in wound area over time was measured by applying an ImageJ plugin ‘Wound Healing Size Tool’ on bright-field images. The change in wound area over the course of 48 hours was used as a measure of the migration speed of keratinocytes. Each value is the mean±SD (n=3). The p-value was calculated using ANOVA for multiple comparisons (Dunnett's multiple comparisons test). **** p<0.0001. *** p<0.001. ** p <0.01. * p<0.05. […] Both peptides healed wound faster within their respective MIC and MBC concentrations. […] SEQ ID NO: 27=Q19L; SEQ ID NO: 2=E1AM2; SEQ ID NO: 19=V8L.
Wound closure was compared with the untreated samples (circle, red highlight). For improved clarity, error bars have been omitted from this representation. […] Each value is the mean±SD (n=3). Statistical significance was assessed using ANOVA for multiple comparisons (Dunnett's multiple comparisons test). **** p<0.0001, *** p<0.001, ** p<0.01, *p<0.05, ns denotes nonsignificance, p >0.05.
Wound areas of the human keratinocyte culture were assessed in presence of peptides in a 2D scratch assay at the 0 hour, and 48-hour time points by applying an ImageJ plugin, ‘Wound Healing Size Tool’ on brightfield images. Quantification of wound width was calculated by obtaining the averaged Euclidean distance between each paired pixel at the lateral wound edges. The change in wound area over the course of 48 hours was used as a measure of the migration speed of keratinocytes.
Using the inverted BioTek Lionheart LX Automated Microscope, brightfield images were obtained at 4× magnification to observe the wound area at timepoints 0 (before treatment) and 48 hours-post treatment. Microscopy settings were maintained as focus offset (781.3 μm), illumination (2), integration Time (21) with no gain. To cover the entire well, montage images of four rows by three columns were stitched together by enabling the “image stitching” function and images were saved in tiff-format.

In data set [4] the test system is human red blood cells (hRBCs). Kind of data set: Hemolysis assay. Particulars: for minimum concentration corresponding to 10% hemolysis (HC) / hemolysis (in words): hRBCs; for minimum concentration corresponding to 10% hemolysis (HC): 37° C.; for hemolysis (in words): FIG. 8 up to 100 μM. As for the experimental part:
The hemolytic score of the peptide variants and pexiganan (SEQ ID NO: 54) are compared to a strong hemolytic peptide, melittin 12 as a control. […] The minimum peptide concentration corresponding to 10% hemolysis (minimal hemolysis concentration, HC) of E1AM2=50 μM, V8LQ19L=12.5 μM, V8LQ19L C-2=3.125 μM, and pexiganan=12.5 μM respectively. Readings of the melittin at 3.125 μM were normalised to 100%.
Examination of hemolytic activity of ultra-short peptides was performed by isolating the red blood cells (RBCs) from human blood samples by centrifugation (1000 g, 4° C., 10 min) and resuspension in 27 mL PBS. This washing step was repeated four times before the RBCs were diluted to a 10% (v/v) suspension. […] Hemolytic properties of E1AM2 and pexiganan were evaluated with melittin used as a positive control, and PBS as a negative control. The plates were incubated at 37° C., for 30 min and then centrifuged (1258 g, 4° C., 6 min). 75 μL of supernatant were transferred into a flat-bottom clear 96-well plate and the OD576 nm was read. Readings of the melittin sample at 3.125 μM were normalized to 100%.

Usually MIC stands for the lowest concentration that inhibits growth of the organism. As a reminder, the MBC is the smallest concentration meeting the test's criterion for killing. With “E1AM2: untagged (E1AM2), KKLLKKWVKLSKKALKLAQSL”, in data set [1], the MIC is 6.25 µM and 6.28 µM; the MBC is 12.5 µM. For the same substance, in data set [2], the “time to kill SA (in words)” value is reported as “within minutes” and the “Time kill SA, >99% killing” value stood at 1 min. Also, in data set [3], the “development of antimicrobial resistance, PA” value is recorded as “prevented resistance acquisition”. For the same substance, the “migration speed of keratinocytes” value in the data set on human keratinocytes (48 h, E1AM2 3.125-12.5 μM, Q19L 3.125-6.25 μM) is listed as “increase keratinocyte migration; also recorded: increased the migration speed of keratinocytes significantly”. For the same substance, the hemolysis in data set [4] (at respective MIC/MBC concentrations, melittin 3.125 μM = 100%, 30 min) is ~ 0%. Moreover, the “minimum concentration corresponding to 10% hemolysis (HC)” value in data set [4] (30 min) turned out to be 50 µM. In data set [4], the “hemolysis (in words)” value is on record as “do not cause hemolysis”.

In data set [1], KKLLKKWLKLSKKALKLALSL-NH2 [V8LQ19L] returned an MIC of 1.56 µM and an MBC of 1.56 µM. In data set [1] (listed as VBLQ19L), this substance returned an MIC of 1.56 µM and an MBC of 1.56 µM. In data set [2], the “time to kill SA (in words)” value was “within seconds” and the “Time kill SA, >99% killing” value is listed as 1* min. The “AMR prevention / resistance induction” value in data set [3] (Table 15: in PA and SA, bacteria not named) is “Prevent AMR”. The “development of antimicrobial resistance, PA” value in data set [3] is on record as “effective in preventing the acquisition of AMR”. Further, the “wound closure, 2D scratch” value in the data set with human keratinocytes (up to 16X MBC) is “did not impair wound healing”. In addition, the “minimum concentration corresponding to 10% hemolysis (HC)” value in data set [4] (30 min) was 12.5 µM. Further, the “hemolysis (in words)” value in data set [4] was “do not cause hemolysis”.
